Test results published in ChEMBL document CHEMBL2440056, “α-Glucosidase-inhibitory iminosugars from the leaves of Suregada glomerulata” (Bioorg Med Chem, 2013).

Tests used:
[1] = Inhibition of rat intestinal alpha-glucosidase using sucrose as substrate assessed as glucose formation incubated for 10 mins prior to substrate addition measured after 30 mins by glucose oxidase method
Mus musculus [2] = experiment: Hypoglycemic effect in starch-challenged ICR mouse assessed as glucose AUC at 10 mg/kg, po by glucose oxidase method (reference value: 430.1 +/- 44.7 mg.hr/dL); format: functional, organism-based; parameters: dose 10 mg/kg
Mus musculus [3] = experiment: Hypoglycemic effect in starch-challenged ICR mouse assessed as blood glucose level at 10 mg/kg, po after 30 mins by glucose oxidase method (reference value: 278.9 +/- 33.5 mg/dL); format: functional
Mus musculus [4] = experiment: Hypoglycemic effect in sucrose-challenged ICR mouse assessed as blood glucose level at 10 mg/kg, po after 120 mins by glucose oxidase method (reference value: 137.8 +/- 14.5 mg/dL); format: functional
Mus musculus [5] = experiment: Hypoglycemic effect in sucrose-challenged ICR mouse assessed as blood glucose level at 10 mg/kg, po after 30 mins by glucose oxidase method (reference value: 187.4 +/- 21.6 mg/dL); format: functional
Mus musculus [6] = experiment: Hypoglycemic effect in sucrose-challenged ICR mouse assessed as blood glucose level at 10 mg/kg, po after 60 mins by glucose oxidase method (reference value: 183.3 +/- 29.1 mg/dL); format: functional
Mus musculus [7] = experiment: Hypoglycemic effect in starch-challenged ICR mouse assessed as blood glucose level at 10 mg/kg, po after 120 mins by glucose oxidase method (reference value: 174.2 +/- 22.9 mg/dL); format: functional
Mus musculus [8] = experiment: Hypoglycemic effect in sucrose-challenged ICR mouse assessed as glucose AUC at 10 mg/kg, po by glucose oxidase method (reference value: 323.2 +/- 37.2 mg.hr/dL); format: functional, organism-based; parameters: dose 10 mg/kg
Mus musculus [9] = experiment: Hypoglycemic effect in starch-challenged ICR mouse assessed as blood glucose level at 10 mg/kg, po after 60 mins by glucose oxidase method (reference value: 243.0 +/- 29.0 mg/dL); format: functional

SMILES	IC50 [1]	AUC (Mus musculus [2])	Activity (Mus musculus [3])	Activity (Mus musculus [4])	Activity (Mus musculus [5])	Activity (Mus musculus [6])	Activity (Mus musculus [7])	AUC (Mus musculus [8])	Activity (Mus musculus [9])
OC[C@@H]1N[C@H](CO)[C@@H](O)[C@H](O)[C@H]1O	24.3 µM								
OC[C@@H](O)[C@H]1N[C@H](CO)[C@@H](O)[C@@H]1O	0.92 µM	3.9e+06 ng·h/mL	262.8 mg/dL	136.7 mg/dL	179 mg/dL	147.3 mg/dL	150.3 mg/dL	2.94e+06 ng·h/mL	216.2 mg/dL
CN1[C@H](CO)[C@H](O)C[C@H](O)[C@H]1CO	20 µM								
C[C@@H]1[C@H](O)[C@@H](O)[C@H](O)[C@@H](CO)N1C	0.72 µM								
OC[C@H]1N[C@H](CO[C@H]2O[C@H](CO)[C@@H](O)[C@H](O)[C@H]2O)[C@H](O)[C@@H](O)[C@@H]1O	38.6 µM								
OC[C@H]1N[C@H](CO[C@@H]2O[C@H](CO)[C@@H](O)[C@H](O)[C@H]2O)[C@H](O)[C@@H](O)[C@@H]1O	4.22 µM	3.41e+06 ng·h/mL	187.1 mg/dL	133.3 mg/dL	130.8 mg/dL	135.1 mg/dL	146.8 mg/dL	2.58e+06 ng·h/mL	204.1 mg/dL
CN1[C@H](CO)[C@H](O)[C@@H](O)[C@H](O)[C@H]1CO	0.08 µM	2.72e+06 ng·h/mL	141 mg/dL	115.6 mg/dL	121.4 mg/dL	114 mg/dL	141.2 mg/dL	2.28e+06 ng·h/mL	144.8 mg/dL
OCCCCCCCC[C@H]1N[C@H](CO)[C@@H](O)[C@H](O)[C@H]1O	5.53 µM								
CCCCN1[C@H](CO[C@@H]2O[C@H](CO)[C@@H](O)[C@H](O)[C@H]2O)[C@H](O)[C@@H](O)[C@H](O)[C@H]1CO	22.9 µM								
C[C@H]1O[C@H](O[C@H]2[C@H](O)[C@@H](O)[C@@H](O[C@H]3[C@H](O)[C@@H](O)C(O)O[C@@H]3CO)O[C@@H]2CO)[C@H](O)[C@@H](O)[C@@H]1N[C@H]1C=C(CO)[C@@H](O)[C@H](O)[C@H]1O (stereo partly specified) [ACARBOSE]	0.54 µM	3.34e+06 ng·h/mL	164.8 mg/dL	111.9 mg/dL	114.6 mg/dL	118.4 mg/dL	177.5 mg/dL	2.23e+06 ng·h/mL	187.7 mg/dL
CN1[C@H](CO)[C@@H](O)C[C@@H](O)[C@@H]1CO	22.2 µM								
C[C@H]1N[C@H](CO)[C@@H](O)[C@H](O)[C@H]1O	22.1 µM								
OC[C@H]1N[C@H](CO)[C@@H](O)[C@@H](O)[C@H]1O	24.9 µM								
CN1[C@H](CO[C@@H]2O[C@H](CO)[C@@H](O)[C@H](O)[C@H]2O)[C@H](O)[C@@H](O)[C@H](O)[C@H]1CO	24.3 µM								
OC[C@@H]1N[C@H](CO)[C@@H](O)[C@H](O)[C@@H]1O	19.2 µM								
OC[C@H]1N[C@H](CO)[C@@H](O)[C@H](O)[C@H]1O	0.09 µM	2.99e+06 ng·h/mL	129.3 mg/dL	136.4 mg/dL	126 mg/dL	149.9 mg/dL	161.2 mg/dL	2.68e+06 ng·h/mL	176.4 mg/dL
